Values quoted from earlier work as cited in patent US6447820B1, “Pharmaceutical composition for the prevention and treatment of scar tissue” (priority 2001, dated 2002).

Columns and labels:
[1] = mice
[2] = mice; remark: listed apart in the source
[3] = X-ray irradiated recipient mice
[4] = mice; remark: listed apart in the source
[5] = guinea pigs
[6] = mice; remark: listed apart in the source

Compound: CC1(C)O[C@H]2CC(=O)OC[C@]23[C@H]2CC[C@@]4(C)[C@H](c5ccoc5)OC(=O)[C@H]5O[C@]54[C@]2(C)C(=O)C[C@@H]13 [limonin]
- sleeping time induced by alpha-chloralose-urethane [1]: shorten

Compound: CC1(C)OC(=O)C=C[C@]2(C)[C@H]3CC[C@@]4(C)[C@H](c5ccoc5)OC(=O)[C@H]5O[C@]54[C@]3(C)C(=O)C[C@@H]12 [obacunone]
- sleeping time induced by alpha-chloralose-urethane [1]: shorten

Compound: COc1ccc2c(c1O)-c1c(O)c(OC)cc3c1[C@H](C2)[N+](C)(C)CC3 [magnoflorine]
- local GvH reactions [2]: suppress

Compound: COc1cc2c(cc1O)C[C@H]1c3cc(O)c(OC)cc3CC[N@@+]1(C)C2 [phellodendrine]
- local GvH reactions [2]: suppress
- local semisyngeneic GvH reactions [2]: suppressed
- systemic allogeneic GvH reactions [3]: suppressed
- effector phase of SRBC-induced delayed type hypersensitivity [4]: did not suppress
- induction phase of SRBC-induced delayed type hypersensitivity [4]: suppressed
- effector phase of tuberculin-induced delayed type hypersensitivity [5]: did not suppress
- induction phase of tuberculin-induced delayed type hypersensitivity [5]: suppressed
- antibody production to SRBC [6]: did not affect
